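All cell lines were grown in 96-well plates and treated with compound for 48 hours. Abbreviation: GI50, concentration required for 50% inhibition of growth.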 Calls of active or inactive are those of the source. Rule as the data show it: active = GI50 up to about 1.1 µM and inactive = higher.
Key:
Experiment in all cases: NCI tumour cell line growth inhibition, 48 h
TK-10 = test system: TK-10
UACC-257 = test system: UACC-257
RPMI-8226 = test system: RPMI-8226
SK-MEL-2 = test system: SK-MEL-2
SW-620 = test system: SW-620
PC-3 = test system: PC-3
SK-OV-3 = test system: SK-OV-3
HOP-92 = test system: HOP-92
COLO 205 = test system: COLO 205
SR = test system: SR
HL-60 = test system: HL-60
M14 = test system: M14
MCF7 = test system: MCF7
HCC 2998 = test system: HCC 2998
MDA-N = test system: MDA-N
HT-29 = test system: HT-29
OVCAR-8 = test system: OVCAR-8
EKVX = test system: EKVX
NCI/ADR-RES = test system: NCI/ADR-RES
SF-268 = test system: SF-268
NCI-H23 = test system: NCI-H23
T47D = test system: T47D
U-251 = test system: U-251
HOP-62 = test system: HOP-62
CAKI-1 = test system: CAKI-1
NCI-H522 = test system: NCI-H522
A498 = test system: A498
LOX IMVI = test system: LOX IMVI
SNB-19 = test system: SNB-19
NCI-H226 = test system: NCI-H226
SK-MEL-28 = test system: SK-MEL-28
NCI-H460 = test system: NCI-H460
SF-539 = test system: SF-539
SF-295 = test system: SF-295
DU-145 = test system: DU-145
UACC-62 = test system: UACC-62
IGROV-1 = test system: IGROV-1
KM12 = test system: KM12
MOLT-4 = test system: MOLT-4
MDA-MB-231 = test system: MDA-MB-231
UO-31 = test system: UO-31
Hs-578T = test system: Hs-578T
OVCAR-3 = test system: OVCAR-3
OVCAR-5 = test system: OVCAR-5
MDA-MB-435 = test system: MDA-MB-435
786-0 = test system: 786-0
CCRF-CEM = test system: CCRF-CEM
ACHN = test system: ACHN
RXF 393 = test system: RXF 393
Malme-3M = test system: Malme-3M
K562 = test system: K562
SNB-75 = test system: SNB-75
OVCAR-4 = test system: OVCAR-4
HCT-15 = test system: HCT-15
SK-MEL-5 = test system: SK-MEL-5
A549 = test system: A549
HCT-116 = test system: HCT-116
SN12C = test system: SN12C

For C[C@@H](Cl)[C@H]1CCCN(Cc2ccc(Br)cc2)C1, the GI50 (TK-10) was > 12.5 µM (inactive), the GI50 (UACC-257) was > 12.5 µM (inactive) and the GI50 (RPMI-8226) was > 12.5 µM (inactive). The GI50 (SK-MEL-2) was > 12.5 µM (inactive), the GI50 (SW-620) was > 12.5 µM (inactive) and the GI50 (PC-3) was > 12.5 µM (inactive). For the same molecule, the GI50 (SK-OV-3) was > 12.5 µM (inactive), the GI50 (HOP-92) was > 12.5 µM (inactive) and the GI50 (COLO 205) was > 12.5 µM (inactive). The GI50 (SR) was > 12.5 µM (inactive), the GI50 (HL-60) was > 12.5 µM (inactive) and the GI50 (M14) was > 12.5 µM (inactive). For the same molecule, the GI50 (MCF7) was > 12.5 µM (inactive), the GI50 (HCC 2998) was > 12.5 µM (inactive) and the GI50 (MDA-N) was > 12.5 µM (inactive). For the same molecule, the GI50 (HT-29) was > 12.5 µM (inactive), the GI50 (OVCAR-8) was > 12.5 µM (inactive) and the GI50 (EKVX) was > 12.5 µM (inactive). For the same molecule, the GI50 (NCI/ADR-RES) was > 12.5 µM (inactive), the GI50 (SF-268) was > 12.5 µM (inactive) and the GI50 (NCI-H23) was > 12.5 µM (inactive). The GI50 (T47D) was > 12.5 µM (inactive), the GI50 (U-251) was > 12.5 µM (inactive) and the GI50 (HOP-62) was > 12.5 µM (inactive). The GI50 (CAKI-1) was > 12.5 µM (inactive), the GI50 (NCI-H522) was > 12.5 µM (inactive) and the GI50 (A498) was > 12.5 µM (inactive). For the same molecule, the GI50 (LOX IMVI) was > 12.5 µM (inactive), the GI50 (SNB-19) was > 12.5 µM (inactive) and the GI50 (NCI-H226) was > 12.5 µM (inactive). The GI50 (SK-MEL-28) was > 12.5 µM (inactive), the GI50 (NCI-H460) was > 12.5 µM (inactive) and the GI50 (SF-539) was > 12.5 µM (inactive). The GI50 (SF-295) was > 12.5 µM (inactive), the GI50 (DU-145) was > 12.5 µM (inactive) and the GI50 (UACC-62) was > 12.5 µM (inactive). The GI50 (IGROV-1) was > 12.5 µM (inactive), the GI50 (KM12) was > 12.5 µM (inactive) and the GI50 (MOLT-4) was > 12.5 µM (inactive). For the same molecule, the GI50 (MDA-MB-231) was > 12.5 µM (inactive), the GI50 (UO-31) was > 12.5 µM (inactive) and the GI50 (Hs-578T) was > 12.5 µM (inactive). For the same molecule, the GI50 (OVCAR-3) was > 12.5 µM (inactive), the GI50 (OVCAR-5) was > 12.5 µM (inactive) and the GI50 (MDA-MB-435) was > 12.5 µM (inactive). For the same molecule, the GI50 (786-0) was > 12.5 µM (inactive), the GI50 (CCRF-CEM) was > 12.5 µM (inactive) and the GI50 (ACHN) was > 12.5 µM (inactive). The GI50 (RXF 393) was > 12.5 µM (inactive), the GI50 (Malme-3M) was > 12.5 µM (inactive) and the GI50 (K562) was > 12.5 µM (inactive). The GI50 (SNB-75) was > 12.5 µM (inactive), the GI50 (OVCAR-4) was > 12.5 µM (inactive) and the GI50 (HCT-15) was greater than 12.5 µM. The GI50 (SK-MEL-5) was > 12.5 µM (inactive) and the GI50 (A549) was > 12.5 µM (inactive).

CC1(C)N=c2c(ncn2-c2ccccc2)=C(C(N)=O)N1 was tested, and the GI50 (TK-10) was > 100 µM (inactive), the GI50 (UACC-257) was > 100 µM (inactive) and the GI50 (RPMI-8226) was > 100 µM (inactive). For the same molecule, the GI50 (SK-MEL-2) was > 100 µM (inactive), the GI50 (SW-620) was > 100 µM (inactive) and the GI50 (PC-3) was > 100 µM (inactive). The GI50 (SK-OV-3) was > 100 µM (inactive), the GI50 (COLO 205) was > 100 µM (inactive) and the GI50 (SR) was > 100 µM (inactive). The GI50 (HL-60) was > 100 µM (inactive), the GI50 (M14) was > 100 µM (inactive) and the GI50 (MCF7) was > 100 µM (inactive). For the same molecule, the GI50 (HCC 2998) was > 100 µM (inactive), the GI50 (MDA-N) was > 100 µM (inactive) and the GI50 (HT-29) was > 100 µM (inactive). The GI50 (OVCAR-8) was > 100 µM (inactive), the GI50 (EKVX) was > 100 µM (inactive) and the GI50 (NCI/ADR-RES) was > 100 µM (inactive). For the same molecule, the GI50 (SF-268) was > 100 µM (inactive), the GI50 (NCI-H23) was > 100 µM (inactive) and the GI50 (T47D) was > 100 µM (inactive). The GI50 (U-251) was > 100 µM (inactive), the GI50 (HOP-62) was > 100 µM (inactive) and the GI50 (CAKI-1) was > 100 µM (inactive). The GI50 (NCI-H522) was > 100 µM (inactive), the GI50 (HCT-116) was > 100 µM (inactive) and the GI50 (A498) was > 100 µM (inactive). The GI50 (LOX IMVI) was > 100 µM (inactive), the GI50 (SNB-19) was > 100 µM (inactive) and the GI50 (NCI-H226) was > 100 µM (inactive). For the same molecule, the GI50 (SK-MEL-28) was > 100 µM (inactive), the GI50 (NCI-H460) was > 100 µM (inactive) and the GI50 (SN12C) was > 100 µM (inactive). For the same molecule, the GI50 (SF-539) was > 100 µM (inactive), the GI50 (SF-295) was > 100 µM (inactive) and the GI50 (DU-145) was > 100 µM (inactive). For the same molecule, the GI50 (UACC-62) was > 100 µM (inactive), the GI50 (IGROV-1) was > 100 µM (inactive) and the GI50 (KM12) was > 100 µM (inactive). For the same molecule, the GI50 (MDA-MB-231) was > 100 µM (inactive), the GI50 (Hs-578T) was > 100 µM (inactive) and the GI50 (OVCAR-3) was > 100 µM (inactive). For the same molecule, the GI50 (OVCAR-5) was > 100 µM (inactive), the GI50 (MDA-MB-435) was > 100 µM (inactive) and the GI50 (786-0) was > 100 µM (inactive). For the same molecule, the GI50 (CCRF-CEM) was > 100 µM (inactive), the GI50 (ACHN) was > 100 µM (inactive) and the GI50 (RXF 393) was > 100 µM (inactive). The GI50 (Malme-3M) was > 100 µM (inactive), the GI50 (K562) was > 100 µM (inactive) and the GI50 (SNB-75) was > 100 µM (inactive). For the same molecule, the GI50 (OVCAR-4) was > 100 µM (inactive), the GI50 (HCT-15) was greater than 100 µM and the GI50 (SK-MEL-5) was > 100 µM (inactive). For the same molecule, the GI50 (A549) was > 100 µM (inactive).

Cc1cc(N(CCC#N)CCC#N)ccc1/C=N/NC(=O)c1cc(Cl)ccc1O was tested, and the GI50 (TK-10) was > 100 µM (inactive), the GI50 (UACC-257) was > 100 µM (inactive) and the GI50 (SK-MEL-2) was > 100 µM (inactive). For the same molecule, the GI50 (PC-3) was > 100 µM (inactive), the GI50 (SK-OV-3) was > 100 µM (inactive) and the GI50 (COLO 205) was > 100 µM (inactive). The GI50 (SR) was > 100 µM (inactive), the GI50 (HL-60) was 69.2 µM (inactive) and the GI50 (M14) was > 100 µM (inactive). For the same molecule, the GI50 (MCF7) was > 100 µM (inactive), the GI50 (HCC 2998) was > 100 µM (inactive) and the GI50 (MDA-N) was > 100 µM (inactive). The GI50 (HT-29) was > 100 µM (inactive), the GI50 (OVCAR-8) was > 100 µM (inactive) and the GI50 (EKVX) was > 100 µM (inactive). For the same molecule, the GI50 (NCI/ADR-RES) was > 100 µM (inactive), the GI50 (SF-268) was 72.6 µM (inactive) and the GI50 (NCI-H23) was > 100 µM (inactive). The GI50 (T47D) was > 100 µM (inactive), the GI50 (U-251) was 49.3 µM (inactive) and the GI50 (HOP-62) was 60.3 µM (inactive). For the same molecule, the GI50 (CAKI-1) was > 100 µM (inactive), the GI50 (NCI-H522) was 37.3 µM (inactive) and the GI50 (HCT-116) was > 100 µM (inactive). For the same molecule, the GI50 (A498) was > 100 µM (inactive), the GI50 (NCI-H226) was > 100 µM (inactive) and the GI50 (NCI-H460) was > 100 µM (inactive). For the same molecule, the GI50 (SN12C) was > 100 µM (inactive), the GI50 (SF-539) was > 100 µM (inactive) and the GI50 (SF-295) was 54.7 µM (inactive). The GI50 (DU-145) was > 100 µM (inactive), the GI50 (UACC-62) was > 100 µM (inactive) and the GI50 (IGROV-1) was > 100 µM (inactive). For the same molecule, the GI50 (MOLT-4) was 36.9 µM (inactive), the GI50 (MDA-MB-231) was > 100 µM (inactive) and the GI50 (Hs-578T) was 59.7 µM (inactive). For the same molecule, the GI50 (OVCAR-3) was > 100 µM (inactive), the GI50 (OVCAR-5) was > 100 µM (inactive) and the GI50 (MDA-MB-435) was > 100 µM (inactive). The GI50 (786-0) was > 100 µM (inactive), the GI50 (CCRF-CEM) was > 100 µM (inactive) and the GI50 (RXF 393) was > 100 µM (inactive). The GI50 (Malme-3M) was > 100 µM (inactive), the GI50 (SNB-75) was 34.1 µM (inactive) and the GI50 (OVCAR-4) was > 100 µM (inactive). For the same molecule, the GI50 (HCT-15) was greater than 100 µM, the GI50 (SK-MEL-5) was > 100 µM (inactive) and the GI50 (A549) was > 100 µM (inactive).

— ChEMBL document CHEMBL1201862, “PubChem BioAssay data set” (2004)
